Experimental data from ChEMBL document CHEMBL1149807, “Synthesis and anticancer activity of new class of bisphosphonates/phosphanamidates” (Eur J Med Chem, 2008).
pIC50: −log10 of the molar value.

What was measured:
Format in all cases: functional, cell-based
NCI-H460 = assay: Growth inhibition of human NCI-H460 cells by MTT assay
SF-268 = assay: Growth inhibition of human SF268 cells by MTT assay
MCF7 = assay: Growth inhibition of human MCF7 cells by MTT assay

SMILES | pIC50 (NCI-H460) | pIC50 (SF-268) | pIC50 (MCF7)
O=P1(C(c2ccc(Cl)cc2)P2(=O)Oc3ccccc3CN2c2ccc(F)c(Cl)c2)Oc2ccccc2CN1c1ccc(F)c(Cl)c1 (stereo unspecified) | 4.96 | 4.95 | 4.84
C/C=C/C(P1(=O)Oc2ccccc2CN1c1ccc(F)c(Cl)c1)P1(=O)Oc2ccccc2CN1c1ccc(F)c(Cl)c1 (stereo unspecified) | 5.09 | 5.07 | 4.95
O=P1(C(/C=C/c2ccccc2)P2(=O)Oc3ccccc3CN2c2ccc(F)c(Cl)c2)Oc2ccccc2CN1c1ccc(F)c(Cl)c1 (stereo unspecified) | 4.93 | 4.94 | 4.88
Cc1ccc(C(P2(=O)OCC(C)(C)CO2)P2(=O)OCC(C)(C)CO2)cc1 | < 3.00 | < 3.00 | < 3.00
Cc1ccc(C(P2(=O)Oc3ccccc3CN2c2ccc(F)c(Cl)c2)P2(=O)Oc3ccccc3CN2c2ccc(F)c(Cl)c2)cc1 (stereo unspecified) | 5.05 | 5.11 | 4.90
O=P1(C(c2ccccc2)P2(=O)Oc3ccccc3CN2c2ccc(F)c(Cl)c2)Oc2ccccc2CN1c1ccc(F)c(Cl)c1 (stereo unspecified) | 5.42 | 5.55 | 5.39
C/C=C/C(P1(=O)OCC(C)(C)CO1)P1(=O)OCC(C)(C)CO1 | < 3.00 | < 3.00 | < 3.00
CC1(C)COP(=O)(C(c2ccccc2)P2(=O)OCC(C)(C)CO2)OC1 | < 3.00 | < 3.00 | < 3.00
CC1(C)COP(=O)(C(c2ccc(Cl)cc2)P2(=O)OCC(C)(C)CO2)OC1 | < 3.00 | < 3.00 | < 3.00
CC1(C)COP(=O)(C(c2cccc([N+](=O)[O-])c2)P2(=O)OCC(C)(C)CO2)OC1 | < 3.00 | < 3.00 | < 3.00
CCN(CC)c1ccc(C(P2(=O)OCC(C)(C)CO2)P2(=O)OCC(C)(C)CO2)cc1 | < 3.00 | < 3.00 | < 3.00
CC1(C)COP(=O)(C(c2ccncc2)P2(=O)OCC(C)(C)CO2)OC1 | < 3.00 | < 3.00 | < 3.00
NP(=O)(O)C(c1ccc(Cl)cc1)P(N)(=O)O (stereo unspecified) | 4.12 | 4.04 | 4.15
CCN(CC)c1ccc(C(P2(=O)Oc3ccccc3CN2c2ccc(F)c(Cl)c2)P2(=O)Oc3ccccc3CN2c2ccc(F)c(Cl)c2)cc1 (stereo unspecified) | 5.24 | 5.41 | 5.24
O=[N+]([O-])c1cccc(C(P2(=O)Oc3ccccc3CN2c2ccc(F)c(Cl)c2)P2(=O)Oc3ccccc3CN2c2ccc(F)c(Cl)c2)c1 (stereo unspecified) | 4.89 | 4.97 | 4.75
O=P1(C(c2ccncc2)P2(=O)Oc3ccccc3CN2c2ccc(F)c(Cl)c2)Oc2ccccc2CN1c1ccc(F)c(Cl)c1 (stereo unspecified) | 4.91 | 4.93 | 4.94
CC1(C)COP(=O)(C(/C=C/c2ccccc2)P2(=O)OCC(C)(C)CO2)OC1 | < 3.00 | < 3.00 | < 3.00
